Bounds are passed on as bounds.

One experiment has as its target T1, human OX2R (Homo sapiens, UniProt O43614).
T1 construct: expressed in transfected cells; host or cells: CHO (Chinese hamster ovary) cells, line CHOOX2R, also expressing NFAT-luciferase
T1 sequence (O43614 1-444): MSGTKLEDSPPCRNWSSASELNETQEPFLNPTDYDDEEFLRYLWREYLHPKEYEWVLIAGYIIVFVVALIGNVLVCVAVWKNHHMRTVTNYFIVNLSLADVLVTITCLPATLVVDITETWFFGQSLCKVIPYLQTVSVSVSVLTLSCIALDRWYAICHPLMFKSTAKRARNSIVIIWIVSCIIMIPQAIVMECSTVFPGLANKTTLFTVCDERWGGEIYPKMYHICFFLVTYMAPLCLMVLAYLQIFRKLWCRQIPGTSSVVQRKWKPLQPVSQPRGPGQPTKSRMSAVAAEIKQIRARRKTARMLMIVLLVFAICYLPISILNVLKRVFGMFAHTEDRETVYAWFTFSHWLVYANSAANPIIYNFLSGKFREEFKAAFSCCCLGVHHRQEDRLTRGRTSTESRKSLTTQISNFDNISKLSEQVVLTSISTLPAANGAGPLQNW
The experiment is described as follows: Evaluation of agonist activity against OX2R (intracellular calcium, Fura-2AM, FDSS7000, CHOOX2R cells). Type of experiment: cell-based. The settings on record: CHO cells expressing human OX2R; calcium fluorescence ratio 340/380 nm; 10^-11.5 M to 10^-5 M. The procedure:
Evaluation of Agonist Activity Against OX2R
NAFT-luciferase gene and human OX2R gene were constitutively expressed in CHO cell, which is a cell line derived from Chinese hamster ovary to establish a cell line (CHOOX2R). The cells were seeded in a 96-well Multiplate at 10,000 cells/well and cultured in a 5% FBS (Thermo Scientific)-added DMEM medium (Sigma-Aldrich) for 48 hr. The medium was removed, an assay buffer (20 mM HEPES (Sigma-Aldrich), Hanks' balanced salt solution (Gibco), 0.1% BSA (Sigma-Aldrich), 2.5 mM probenecid acid (Wako Pure Chemical Industries, Ltd.)) (100 μL) containing 4 μM Fura-2AM (Cayman Chemical) was added, and the cells were incubated for 60 min. The buffer containing Fura-2AM was removed, and an assay buffer (75 μL) was added. An assay buffer (25 μL) containing a test compound was added thereto to start the reaction. Changes in the intracellular calcium ion concentration due to the reaction were measured by measuring the fluorescence intensity ratio by dual wavelength excitation at 340 and 380 nm, by using FDSS7000 (Hamamatsu Photonics K.K.). The test compound was dissolved in DMSO to 10 mM, and diluted with the assay buffer to a final concentration of 10^−11.5 M to 10^−5 M (final concentration of DMSO 1%).
For `COc1ccc(N2CCCN(c3cccc(NS(=O)(=O)c4cc(-c5cccc(C(=O)N(C)C)c5)ccc4OC)c3)C2=O)cc1` [Example 5], the EC50 worked out at 2.41 nM.
Still for that read-out and setting: to `CCOc1ccc(N2CCCN(c3cccc(NS(=O)(=O)c4cc(-c5cccc(C(=O)N(C)C)c5)ccc4OC)c3)C2=O)cc1` [Example 6, 3′-(N-(3-(3-(4-ethoxyphenyl)-2-oxotetrahydropyrimidin-1(2H)-yl)phenyl)sulfamoyl)-4′-methoxy-N,N-dimethyl-[1,1′-biphenyl]-3-carboxamide] belongs 2.87 nM; to `CCCCCCCCOc1ccc(N2CCCN(c3cccc(NS(=O)(=O)c4cc(-c5cccc(C(=O)N(C)C)c5)ccc4OC)c3)C2=O)cc1` [Example 11], over 500 nM.
For the compound `CCCc1ccc(N2CCCN(c3cccc(NS(=O)(=O)c4cc(-c5cccc(C(=O)N(C)C)c5)ccc4OC)c3)C2=O)cc1` [Example 1, 4′-methoxy-N,N-dimethyl-3′-(N-(3-(2-oxo-3-(4-propylphenyl)tetrahydropyrimidin-1(2H)-yl)phenyl)sulfamoyl)-[1,1′-biphenyl]-3-carboxamide], the EC50 stood at 0.61 nM.
For the compound `[2H]C([2H])([2H])Oc1ccc(-c2cccc(C(=O)N(C)C)c2)cc1S(=O)(=O)Nc1cccc(N2CCCN(c3ccc(CCC)cc3)C2=O)c1` [Example 16, 4′-(methoxy-d3)-N,N-dimethyl-3′-(N-(3-(2-oxo-3-(4-propylphenyl)tetrahydropyrimidin-1(2H)-yl)phenyl)sulfamoyl)-[1,1′-biphenyl]-3-carboxamide], the EC50 came to 0.843 nM.
Same read-out and setting: to `CCc1ccc(N2CCCN(c3cccc(NS(=O)(=O)c4cc(-c5cccc(C(=O)N(C)C)c5)ccc4OC)c3)C2=O)cc1` [Example 3] belongs 3.1 nM.
Consider `CCCc1ccc(N2CCCN(c3cccc(NS(=O)(=O)c4cc(C(C)C)ccc4OC)c3)C2=O)cc1` [Example 19, 5-isopropyl-2-methoxy-N-(3-(2-oxo-3-(4-propylphenyl)tetrahydropyrimidin-1(2H)-yl)phenyl)benzenesulfonamide], for which the EC50 worked out at 19.6 nM.
For `CCOc1ccc(N2CCCN(c3cccc(NS(=O)(=O)c4cc(C(C)C)ccc4OC)c3)C2=O)cc1` [Example 22], the EC50 came out at 38.1 nM.
On the same count and under the same terms, to `COc1ccc(-c2cccc(C(=O)N(C)C)c2)cc1S(=O)(=O)Nc1cccc(N2CCCN(c3ccc(-c4ccccc4)cc3)C2=O)c1` [Example 14] belongs 140 nM.
Regarding `COc1ccc(-c2cccc(C(=O)N(C)C)c2)cc1S(=O)(=O)Nc1cccc(N2CCCN(c3ccc(C(C)C)cc3)C2=O)c1` [Example 4], the EC50 was 3.3 nM.
In the case of `COc1ccc(-c2cccc(C(=O)N(C)C)c2)cc1S(=O)(=O)Nc1cccc(N2CCCN(c3ccc(C)cc3)C2=O)c1` [Example 2], the EC50 was found to be 5.12 nM.
For `COc1ccc(-c2cccc(C(=O)N(C)C)c2)cc1S(=O)(=O)Nc1cccc(N2CCCN(c3ccc(Oc4ccccc4)cc3)C2=O)c1` [Example 12, 4′-methoxy-N,N-dimethyl-3′-(N-(3-(2-oxo-3-(4-phenoxyphenyl)tetrahydropyrimidin-1(2H)-yl)phenyl)sulfamoyl)-[1,1′-biphenyl]-3-carboxamide], the EC50 was 217 nM.
Consider `COc1ccc(N2CCCN(c3cccc(NS(=O)(=O)c4cc(C(C)C)ccc4OC)c3)C2=O)cc1` [Example 21], for which the EC50 came to 81.7 nM.
As to `COc1ccc(C(C)C)cc1S(=O)(=O)Nc1cccc(N2CCCN(c3ccc(C(C)C)cc3)C2=O)c1` [Example 20], the EC50 turned out to be 41.4 nM.
Consider `CCCCCCCCc1ccc(N2CCCN(c3cccc(NS(=O)(=O)c4cc(-c5cccc(C(=O)N(C)C)c5)ccc4OC)c3)C2=O)cc1` [Example 15], for which the EC50 is over 500 nM.
On to `CCCCc1ccc(N2CCCN(c3cccc(NS(=O)(=O)c4cc(-c5cccc(C(=O)N(C)C)c5)ccc4OC)c3)C2=O)cc1` [Example 13, 3′-(N-(3-(3-(4-butylphenyl)-2-oxotetrahydropyrimidin-1(2H)-yl)phenyl)sulfamoyl)-4′-methoxy-N,N-dimethyl-[1,1′-biphenyl]-3-carboxamide], for which the EC50 was 7.52 nM.
On the same count and under the same terms, in the case of `COc1ccc(-c2cccc(C(=O)N(C)C)c2)cc1S(=O)(=O)Nc1cccc(N2CCCN(c3ccc(OCC(C)C)cc3)C2=O)c1` [Example 10] it was 65.9 nM; in that of `CCCc1ccc(N2CCCN(c3cccc(NS(=O)(=O)c4cc(C5CNC(=O)C5)ccc4OC)c3)C2=O)cc1` (stereo not shown) [Example 18, 2-methoxy-N-(3-(2-oxo-3-(4-propylphenyl)tetrahydropyrimidin-1(2H)-yl)phenyl)-5-(5-oxopyrrolidin-3-yl)benzenesulfonamide], 6.31 nM; in that of `CCCc1ccc(N2CCCN(c3cccc(NS(=O)(=O)c4cc(-c5cccc(C(=O)N(C)C)c5)ccc4OC(F)(F)F)c3)C2=O)cc1` [Example 17, N,N-dimethyl-3′-(N-(3-(2-oxo-3-(4-propylphenyl)tetrahydropyrimidin-1(2H)-yl)phenyl)sulfamoyl)-4′-(trifluoromethoxy)-[1,1′-biphenyl]-3-carboxamide], 395 nM.
Take `COc1ccc(-c2cccc(C(=O)N(C)C)c2)cc1S(=O)(=O)Nc1cccc(N2CCCN(c3ccc(OCC(F)(F)F)cc3)C2=O)c1` [Example 9]: the EC50 was 20 nM.

In another experiment the test system is C57BL/6J lineage wild-type (WT) mice. Briefly: Awakening effect of oral administration (light period) to wild-type mice (EEG/EMG). The experiment is classed as in vivo, mouse. To be noted: ZT6 light period, 0.625 mg/kg-25 mg/kg, versus control MC, 60, 120, 180 min after administration, n=3. The source says: Awakening Effect of Oral Administration (Light Period) of Test Compound to Wild-Type Mice
As the test compound, the compound of Example 1 was used.
C57BL/6J lineage wild-type (WT) mice, and orexin receptor-deficient mice (DKO mice) (both males) as a negative control were used as experimental animals. The mice (9 to 35 weeks of age) underwent surgery for embedding electroencephalogram electrodes into the skull (Bregma: X=1.5; Y=0.6, Lambda: X=1.5; Y=0) and inserting electromyogram electrodes into the trapezius muscle under isoflurane anesthesia. Two weeks postoperation were the recovery period and acclimation period to the electroencephalogram/electromyogram measurement cage, after which administration and measurement were performed. To prepare a suspension for oral administration of the test compound, the compound was grinded in an agate mortar for 20 min and sufficiently stirred while adding a small amount of 0.5% methylcellulose aqueous solution (MC). The suspension (100 μL) was dispensed into an oral gavage needle. […]
To the WT mice were orally administered 100 μL each of the control MC or the test compound during the light period (ZT6) in the sleep period. […] DKO mice were also evaluated by a similar method, in which MC or a test compound (5 mg/kg) was orally administered, and electroencephalogram and electromyogram were measured for 3 hr after the administration. […]
As for `CCCc1ccc(N2CCCN(c3cccc(NS(=O)(=O)c4cc(-c5cccc(C(=O)N(C)C)c5)ccc4OC)c3)C2=O)cc1` [Example 1, 4′-methoxy-N,N-dimethyl-3′-(N-(3-(2-oxo-3-(4-propylphenyl)tetrahydropyrimidin-1(2H)-yl)phenyl)sulfamoyl)-[1,1′-biphenyl]-3-carboxamide], the “awakening time (awakening prolonging effect)” value is “significantly prolonged the awakening time and increased the awakening time in a dose-dependent manner”.

The test system of the next experiment is orexin receptor-deficient mice (DKO mice). The experiment is described as follows: Awakening effect of oral administration to orexin receptor-deficient mice (DKO mice), negative control (EEG/EMG). The experiment is classed as in vivo, mouse. To be noted: oral 5 mg/kg, versus control MC, measured 3 hr after administration, n=3. The source says:
C57BL/6J lineage wild-type (WT) mice, and orexin receptor-deficient mice (DKO mice) (both males) as a negative control were used as experimental animals. The mice (9 to 35 weeks of age) underwent surgery for embedding electroencephalogram electrodes into the skull (Bregma: X=1.5; Y=0.6, Lambda: X=1.5; Y=0) and inserting electromyogram electrodes into the trapezius muscle under isoflurane anesthesia. Two weeks postoperation were the recovery period and acclimation period to the electroencephalogram/electromyogram measurement cage, after which administration and measurement were performed. To prepare a suspension for oral administration of the test compound, the compound was grinded in an agate mortar for 20 min and sufficiently stirred while adding a small amount of 0.5% methylcellulose aqueous solution (MC). The suspension (100 μL) was dispensed into an oral gavage needle. The suspensions were prepared 30 min before administration.
To the WT mice were orally administered 100 μL each of the control MC or the test compound during the light period (ZT6) in the sleep period. The test compound was administered at concentrations of 0.625 mg/kg-25 mg/kg according to the stage. DKO mice were also evaluated by a similar method, in which MC or a test compound (5 mg/kg) was orally administered, and electroencephalogram and electromyogram were measured for 3 hr after the administration. […]
Consider `CCCc1ccc(N2CCCN(c3cccc(NS(=O)(=O)c4cc(-c5cccc(C(=O)N(C)C)c5)ccc4OC)c3)C2=O)cc1` [Example 1, 4′-methoxy-N,N-dimethyl-3′-(N-(3-(2-oxo-3-(4-propylphenyl)tetrahydropyrimidin-1(2H)-yl)phenyl)sulfamoyl)-[1,1′-biphenyl]-3-carboxamide], for which the “awakening time (awakening prolonging effect)” value was “no significant difference in the awakening time”.

(Values after patent US11673867B2, “Sulfonamide derivative or pharmaceutically acceptable acid-addition salt” (University of Tsukuba, priority 2017, dated 2023).)
